Test systems include 786-0; A549; BT-549; COLO 205; DU-145; EKVX; HOP-62; HOP-92; K562; LOX IMVI; MDA-N; NCI-H23; OVCAR-5; OVCAR-8; RPMI-8226; SK-MEL-2; SN12C; SW-620.
Test in all cases: growth of human tumour cells (NCI), 48 h

The results in this text go back to ChEMBL document CHEMBL1201862, “PubChem BioAssay data set” (2004).

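Where inhibition never reached the appropriate level, the endpoint shown equals the highest concentration tested. Otherwise, values were interpolated linearly from a five-concentration, 48-hour dose response in 96-well plates. Abbreviation: GI50, concentration required for 50% inhibition of growth.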 Active and inactive are the calls of the source. Cut-off read from the data, not from the text of the source: active = GI50 up to about 1.1 µM and inactive = higher.

As for `O=[N+]([O-])c1nccn1CCCNCCCn1ccnc1[N+](=O)[O-]`, the GI50 with 786-0, in the test with A549, with BT-549, in the test on COLO 205, with DU-145 and in the test on EKVX was > 100 µM (inactive) in each case. Also, the GI50 in the test with HOP-62 was > 100 µM (inactive); in the test with HOP-92, > 100 µM (inactive); in the test on K562, > 100 µM (inactive); with LOX IMVI, 74.6 µM (inactive); in the test on MDA-N, > 100 µM (inactive); in the test on NCI-H23, > 100 µM (inactive). The GI50 in the test on OVCAR-5, in the test on OVCAR-8, in the test with RPMI-8226, in the test with SK-MEL-2, with SN12C and in the test on SW-620 was > 100 µM (inactive) each time.
Consider `COc1ccc2c(c1)Cc1cc(/N=[N+](\[O-])c3ccc4c(c3)Cc3cc(OC)ccc3-4)ccc1-2`, for which the GI50 with 786-0 is 33.2 µM (inactive); in the test with A549, 43.1 µM (inactive); in the test with BT-549 it was 76.7 µM (inactive); in the test on COLO 205, 15.3 µM (inactive); with DU-145 it was > 100 µM (inactive); with EKVX, 11.3 µM (inactive). Moreover, the GI50 with HOP-62 was 43.9 µM (inactive); in the test on HOP-92, 44.1 µM (inactive); in the test with K562 it was 38.8 µM (inactive); in the test with LOX IMVI, 33.1 µM (inactive); with MDA-N, 29.7 µM (inactive); in the test with NCI-H23, 65.6 µM (inactive). For the same molecule, the GI50 in the test on OVCAR-5 was > 100 µM (inactive); with OVCAR-8 it was 38.6 µM (inactive); in the test on SK-MEL-2, 60 µM (inactive); in the test on SN12C, > 100 µM (inactive); in the test on SW-620, > 100 µM (inactive).
Regarding `C=C(CC[C@@H](C)[C@H]1CC[C@H]2[C@@H]3C[C@@H](O)[C@H]4C[C@@H](O)CC[C@]4(CO)[C@H]3CC[C@]12C)C(C)C`, the GI50 in the test on 786-0 was 3.75 µM (inactive); in the test on A549 it was 4.23 µM (inactive); with BT-549 it was 8.09 µM (inactive); with COLO 205 it was 7.71 µM (inactive); in the test on DU-145, 3.48 µM (inactive); in the test on EKVX it was 2.1 µM (inactive). Also, the GI50 with HOP-62 was 7.57 µM (inactive); in the test on HOP-92, 8.28 µM (inactive); in the test on K562, 1.49 µM (inactive); in the test on LOX IMVI, 3.11 µM (inactive); in the test with MDA-N, 8.49 µM (inactive); in the test with NCI-H23 it was 5.75 µM (inactive). Besides, the GI50 with OVCAR-5 was 6.68 µM (inactive); in the test on OVCAR-8, 5.47 µM (inactive); in the test on RPMI-8226, 5.08 µM (inactive); in the test on SK-MEL-2 it was 7.33 µM (inactive); in the test with SN12C, 6.11 µM (inactive); in the test with SW-620 it was 5.98 µM (inactive).
`Clc1nc(Cl)c(-c2ccccc2)c(Cl)n1`: the GI50 with 786-0 is 2.5 µM (inactive); in the test with A549, 17.1 µM (inactive); in the test on BT-549, 2.61 µM (inactive); in the test with COLO 205, 1.84 µM (inactive); in the test on DU-145 it was 13.5 µM (inactive); with EKVX it was 1.8 µM (inactive). Further, the GI50 is 16.9 µM (inactive) with HOP-62; 5.45 µM (inactive) in the test with HOP-92; 2.9 µM (inactive) in the test with K562; 1.66 µM (inactive) in the test with LOX IMVI; 2.49 µM (inactive) in the test with MDA-N; 4.51 µM (inactive) with NCI-H23. Also, the GI50 is 4.61 µM (inactive) in the test with OVCAR-5; 2.75 µM (inactive) in the test on OVCAR-8; 2.69 µM (inactive) in the test with RPMI-8226; 3.14 µM (inactive) with SN12C; 2.26 µM (inactive) in the test on SW-620.
For the molecule `CCc1c2c([nH]c(=S)c1C#N)CCC2`, the GI50 is > 100 µM (inactive) in the test on 786-0; > 100 µM (inactive) in the test with A549; > 100 µM (inactive) in the test with BT-549; > 100 µM (inactive) with COLO 205; > 100 µM (inactive) in the test on DU-145; 16.9 µM (inactive) in the test on EKVX. Moreover, the GI50 with HOP-62 was > 100 µM (inactive); with HOP-92, 2.35 µM (inactive); with K562, > 100 µM (inactive); in the test with LOX IMVI, > 100 µM (inactive); in the test with MDA-N, > 100 µM (inactive); with NCI-H23 it was > 100 µM (inactive). Further, the GI50 in the test on OVCAR-5, in the test on OVCAR-8, in the test with RPMI-8226, with SK-MEL-2 and with SW-620 was > 100 µM (inactive) each time.
Regarding `Cc1ccc(NC(=O)c2cc(S(=O)(=O)Nc3n[nH]c(=O)n3-c3ccccc3)c(S)cc2Cl)cc1`, the GI50 in the test on 786-0, in the test with A549, with BT-549, in the test on COLO 205, in the test with DU-145 and with EKVX was > 100 µM (inactive) each time. The GI50 with HOP-92, with K562, in the test on LOX IMVI, in the test on MDA-N, with NCI-H23 and with OVCAR-5 was > 100 µM (inactive) throughout. Also, the GI50 in the test with OVCAR-8, with RPMI-8226, with SK-MEL-2, in the test with SN12C and with SW-620 was > 100 µM (inactive) each time.
With `COc1cc(C2S/C(=C/c3ccccc3)C(=O)N2c2cccc(Cl)c2)cc(OC)c1OC` (centres undefined), the GI50 in the test on 786-0 was 33.3 µM (inactive); in the test on A549, 78.3 µM (inactive); in the test with BT-549 it was 28.6 µM (inactive); in the test with COLO 205 it was > 100 µM (inactive); with DU-145 it was 23.1 µM (inactive); with EKVX, 37.2 µM (inactive). Further, the GI50 is 96.4 µM (inactive) in the test on HOP-92; 21.1 µM (inactive) in the test with K562; 21.1 µM (inactive) with LOX IMVI; 30.2 µM (inactive) in the test on MDA-N; 94.4 µM (inactive) in the test on NCI-H23; > 100 µM (inactive) in the test with OVCAR-5. The GI50 with OVCAR-8 is 57.8 µM (inactive); in the test on RPMI-8226, 24.8 µM (inactive); with SK-MEL-2, 62.7 µM (inactive); in the test on SN12C, 55.2 µM (inactive); in the test with SW-620, 46 µM (inactive).
Take `CN(C)c1ncc(-c2c[nH]c3ccccc23)nc1-c1c[nH]c2ccccc12`: the GI50 is 2.12 µM (inactive) in the test on 786-0; 3.33 µM (inactive) in the test on A549; 13.8 µM (inactive) in the test with BT-549; 2.3 µM (inactive) with COLO 205; 7.28 µM (inactive) with DU-145; 3.32 µM (inactive) in the test on EKVX. Also, the GI50 in the test on HOP-62 is 8.18 µM (inactive); in the test with HOP-92, 3.2 µM (inactive); in the test on K562, 2.8 µM (inactive); in the test with LOX IMVI it was 2.51 µM (inactive); in the test with MDA-N it was 2.08 µM (inactive); in the test with OVCAR-5 it was 4.68 µM (inactive). Also, the GI50 was 6.93 µM (inactive) in the test on OVCAR-8; 2.74 µM (inactive) in the test on RPMI-8226; 3.83 µM (inactive) in the test with SK-MEL-2; 2.88 µM (inactive) in the test on SN12C; 3.38 µM (inactive) in the test on SW-620.
Turning to `Nc1nc(Cl)cc(NCC2(CO)CC(CCCc3ccccc3)C2)n1` (centres undefined), the GI50 in the test with 786-0 was > 81.7 µM (inactive); with A549, 14.7 µM (inactive); in the test with BT-549 it was > 100 µM (inactive); in the test on COLO 205, > 100 µM (inactive); in the test with DU-145, > 100 µM (inactive); with EKVX, > 25.3 µM (inactive). The GI50 was > 100 µM (inactive) in the test with HOP-62; 34 µM (inactive) with HOP-92; 2.11 µM (inactive) in the test with K562; 0.282 µM (active) with LOX IMVI; > 100 µM (inactive) in the test with MDA-N; > 100 µM (inactive) in the test with OVCAR-5. The GI50 is > 72.1 µM (inactive) with OVCAR-8; > 100 µM (inactive) in the test with RPMI-8226; > 100 µM (inactive) in the test with SK-MEL-2; > 36.6 µM (inactive) in the test on SN12C; > 100 µM (inactive) in the test on SW-620.
Consider `CC(=O)Oc1ccc2oc(=O)cc(C)c2c1`, for which the GI50 in the test on 786-0, with A549, in the test on BT-549, in the test on COLO 205, with DU-145 and with EKVX was > 100 µM (inactive) each time. Further, the GI50 with HOP-62, in the test on HOP-92, with K562, in the test on LOX IMVI, with MDA-N and in the test with NCI-H23 was > 100 µM (inactive) each time. Besides, the GI50 with OVCAR-8, in the test with RPMI-8226, in the test with SK-MEL-2, in the test on SN12C and with SW-620 was > 100 µM (inactive) each time.
Take `c1ccc2c(c1)Sc1nccc3ccnc-2c13`: the GI50 is 80.4 µM (inactive) in the test with 786-0; 77.1 µM (inactive) with BT-549; 48.3 µM (inactive) with COLO 205; > 100 µM (inactive) in the test with DU-145; 10.6 µM (inactive) in the test on EKVX; 35.8 µM (inactive) in the test on HOP-62. Also, the GI50 is 43.6 µM (inactive) in the test on HOP-92; 71.3 µM (inactive) in the test with K562; 28.9 µM (inactive) in the test with LOX IMVI; 57.3 µM (inactive) with MDA-N; 36.8 µM (inactive) in the test on NCI-H23; > 100 µM (inactive) with OVCAR-5. Besides, the GI50 in the test with OVCAR-8 was 21.9 µM (inactive); in the test on RPMI-8226 it was 55.5 µM (inactive); in the test on SK-MEL-2 it was > 100 µM (inactive); in the test on SN12C, 39 µM (inactive); in the test on SW-620 it was 19.3 µM (inactive).
